These are literature values, as cited in PubChem BioAssay AID1259409 (Chemical Carcinogenesis Research Information System (CCRIS), 2018).

The test system of the data set is rodent chemically induced tumor inhibition, incidence and multiplicity. Nature of the data set: CCRIS tumor inhibitor studies. The settings on record: Dose [Inhibitor]: 0.

With `CCCCCC(O)CC(=O)CCC1CCC(O)C(OC)C1` (configuration not stated), the “tumour outcome (control, treated, inhibition, significance)” value (Carcinogen: AZOXYMETHANE, 25843-45-2, 0.02% IN DIET IN WK 1-3 OF STUDY FOLLOWED BY BASAL DIET FOR DURATION OF STUDY (STUDY DURATION: 1 YR), Route [Inhibitor]: ORAL, Species: RAT, Strain/Sex: F344/MALE, Target Tissue: Type of Lesion: LARGE INTESTINE: ADENOCARCINOMA, Dose [Carcinogen]: 15 MG/KG BW 1/WK IN WK 1 AND 2 OF STUDY, Promoter: NONE USED) is 13/27 (48%), 3/17 (18%), 63%, not calculated; the “tumour outcome (control, treated, inhibition, significance)” value (Carcinogen: AZOXYMETHANE, 25843-45-2, 0.02% IN DIET IN WK 1-3 OF STUDY FOLLOWED BY BASAL DIET FOR DURATION OF STUDY (STUDY DURATION: 1 YR), Route [Inhibitor]: ORAL, Species: RAT, Strain/Sex: F344/MALE, Target Tissue: Type of Lesion: LARGE INTESTINE: ADENOMA, Dose [Carcinogen]: 15 MG/KG BW 1/WK IN WK 1 AND 2 OF STUDY, Promoter: NONE USED) is recorded as 6/27 (22%), 5/17 (29%), -32%, not calculated; the “tumour outcome (control, treated, inhibition, significance)” value (Carcinogen: AZOXYMETHANE, 25843-45-2, 0.02% IN DIET IN WK 1-3 OF STUDY FOLLOWED BY BASAL DIET FOR DURATION OF STUDY (STUDY DURATION: 1 YR), Route [Inhibitor]: ORAL, Species: RAT, Strain/Sex: F344/MALE, Target Tissue: Type of Lesion: SMALL INTESTINE: ADENOCARCINOMA, Dose [Carcinogen]: 15 MG/KG BW 1/WK IN WK 1 AND 2 OF STUDY, Promoter: NONE USED) is recorded as 6/27 (22%), 0/17 (0%), 100%, not calculated.

As for `CC(O)C(=O)O` (configuration not stated), for the setting “Carcinogen: 1,2-DIMETHYLHYDRAZINE, 540-73-8, 3.2 G/L IN DRINKING WATER FOR DURATION OF STUDY (STUDY DURATION: 34 WK), Route [Inhibitor]: ORAL, Species: RAT, Strain/Sex: SPRAGUE-DAWLEY/MALE, FEMALE, Target Tissue: Type of Lesion: COLON: TUMOR, Dose [Carcinogen]: 21 MG/KG 1/WK FOR 18 WK, Promoter: NONE USED”, the outcome is given as 28/29 (97%), 18/28 (64%), not calculated.

`NCCS(=O)(=O)O`: the “tumour outcome (control, treated, inhibition, significance)” value runs as follows: (Carcinogen: AZOXYMETHANE, 25843-45-2, 600 PPM IN DIET BEGINNING 2 WK PRIOR TO CARCINOGEN TREATMENT AND CONTINUING FOR DURATION OF STUDY (STUDY DURATION: 56, Route [Inhibitor]: ORAL, Species: RAT, Strain/Sex: F344/MALE, Target Tissue: Type of Lesion: COLON: INVASIVE ADENOCARCINOMA, Dose [Carcinogen]: 15 MG/KG 1/WK FOR 2 WK, Promoter: NONE USED) 34%, 16%, 53%, not significant; (Carcinogen: AZOXYMETHANE, 25843-45-2, 600 PPM IN DIET BEGINNING 2 WK PRIOR TO CARCINOGEN TREATMENT AND CONTINUING FOR DURATION OF STUDY (STUDY DURATION: 56, Route [Inhibitor]: ORAL, Species: RAT, Strain/Sex: F344/MALE, Target Tissue: Type of Lesion: COLON: NONINVASIVE ADENOCARCINOMA, Dose [Carcinogen]: 15 MG/KG 1/WK FOR 2 WK, Promoter: NONE USED) 53%, 61%, -15%, not significant; (Carcinogen: AZOXYMETHANE, 25843-45-2, 1200 PPM IN DIET BEGINNING 2 WK PRIOR TO CARCINOGEN TREATMENT AND CONTINUING FOR DURATION OF STUDY (STUDY DURATION: 5, Route [Inhibitor]: ORAL, Species: RAT, Strain/Sex: F344/MALE, Target Tissue: Type of Lesion: COLON: INVASIVE ADENOCARCINOMA, Dose [Carcinogen]: 15 MG/KG 1/WK FOR 2 WK, Promoter: NONE USED) 34%, 17%, 50%, not significant; (Carcinogen: AZOXYMETHANE, 25843-45-2, 1200 PPM IN DIET BEGINNING 2 WK PRIOR TO CARCINOGEN TREATMENT AND CONTINUING FOR DURATION OF STUDY (STUDY DURATION: 5, Route [Inhibitor]: ORAL, Species: RAT, Strain/Sex: F344/MALE, Target Tissue: Type of Lesion: COLON: NONINVASIVE ADENOCARCINOMA, Dose [Carcinogen]: 15 MG/KG 1/WK FOR 2 WK, Promoter: NONE USED) 53%, 47%, 11%, not significant; (Carcinogen: DIETHYLNITROSAMINE, 55-18-5, 2000 PPM IN DIET FOR 3 WK DURING INITIATION PHASE (STUDY DURATION: 24 WK), Route [Inhibitor]: ORAL, Species: RAT, Strain/Sex: F344/MALE, Target Tissue: Type of Lesion: LIVER: HEPATOCELLULAR ADENOMA, Dose [Carcinogen]: 100 MG/KG BW 1/WK FOR 3 WK, Promoter: PHENOBARBITAL, 50-06-6) 19/20 (95%), 12/19 (63%), 34%, p<0.02; (Carcinogen: DIETHYLNITROSAMINE, 55-18-5, 2000 PPM IN DIET FOR 3 WK DURING INITIATION PHASE (STUDY DURATION: 24 WK), Route [Inhibitor]: ORAL, Species: RAT, Strain/Sex: F344/MALE, Target Tissue: Type of Lesion: LIVER: HEPATOCELLULAR CARCINOMA, Dose [Carcinogen]: 100 MG/KG BW 1/WK FOR 3 WK, Promoter: PHENOBARBITAL, 50-06-6) 14/20 (70%), 13/19 (68%), 3%, not significant. Also, the “tumour outcome (control, treated, inhibition, significance)” value is, setting by setting: (Carcinogen: DIETHYLNITROSAMINE, 55-18-5, 2000 PPM IN DIET FOR 20 WK BEGINNING POST CARCINOGEN TREATMENT (STUDY DURATION: 24 WK), Route [Inhibitor]: ORAL, Species: RAT, Strain/Sex: F344/MALE, Target Tissue: Type of Lesion: LIVER: HEPATOCELLULAR ADENOMA, Dose [Carcinogen]: 100 MG/KG BW 1/WK FOR 3 WK, Promoter: NONE USED) 3/24 (13%), 4/18 (22%), -69%, not significant; (Carcinogen: DIETHYLNITROSAMINE, 55-18-5, 2000 PPM IN DIET FOR 20 WK BEGINNING POST CARCINOGEN TREATMENT (STUDY DURATION: 24 WK), Route [Inhibitor]: ORAL, Species: RAT, Strain/Sex: F344/MALE, Target Tissue: Type of Lesion: LIVER: HEPATOCELLULAR ADENOMA, Dose [Carcinogen]: 100 MG/KG BW 1/WK FOR 3 WK, Promoter: PHENOBARBITAL, 50-06-6) 19/20 (95%), 7/21 (33%), 65%, p<0.0001; (Carcinogen: DIETHYLNITROSAMINE, 55-18-5, 2000 PPM IN DIET FOR 20 WK BEGINNING POST CARCINOGEN TREATMENT (STUDY DURATION: 24 WK), Route [Inhibitor]: ORAL, Species: RAT, Strain/Sex: F344/MALE, Target Tissue: Type of Lesion: LIVER: HEPATOCELLULAR CARCINOMA, Dose [Carcinogen]: 100 MG/KG BW 1/WK FOR 3 WK, Promoter: NONE USED) 7/24 (29%), 4/18 (22%), 24%, not significant; (Carcinogen: DIETHYLNITROSAMINE, 55-18-5, 2000 PPM IN DIET FOR 20 WK BEGINNING POST CARCINOGEN TREATMENT (STUDY DURATION: 24 WK), Route [Inhibitor]: ORAL, Species: RAT, Strain/Sex: F344/MALE, Target Tissue: Type of Lesion: LIVER: HEPATOCELLULAR CARCINOMA, Dose [Carcinogen]: 100 MG/KG BW 1/WK FOR 3 WK, Promoter: PHENOBARBITAL, 50-06-6) 14/20 (70%), 13/21 (62%), 11%, not significant.

For `c1ccc2c(c1)Oc1ccccc1O2`, under “Carcinogen: 7,12-DIMETHYLBENZ[A]ANTHRACENE, 57-97-6, 17 NMOL 2/WK APPLIED 1 HR PRIOR TO EACH PROMOTER DOSE FOR 20 WK (STUDY DURATION: 21 WK), Route [Inhibitor]: DERMAL, Species: MOUSE, Target Tissue: Type of Lesion: SKIN: TUMOR, Dose [Carcinogen]: 390 NMOL ONCE, Promoter: 12-O-TETRADECANOYLPHORBOL-13-ACETATE, 16561-29-8”, the “tumour outcome (control, treated, inhibition, significance)” value was 100%, 73%, 27%, not calculated.

`CCCCCCCCCCCCOC(=O)c1cc(O)c(O)c(O)c1`: the “tumour outcome (control, treated, inhibition, significance)” value reads like this: (Carcinogen: 7,12-DIMETHYLBENZ[A]ANTHRACENE, 57-97-6, 10 UMOL IN 0.4 ML ACETONE 20 MIN PRIOR TO EACH PROMOTER DOSE (STUDY DURATION: 47 WK), Route [Inhibitor]: DERMAL, Species: MOUSE, Strain/Sex: CF-1/FEMALE, Target Tissue: Type of Lesion: SKIN: CARCINOMA, Dose [Carcinogen]: 100 NMOL IN 0.2 ML ACETONE ONCE) 67%, 17%, 75%, not calculated; (Carcinogen: 7,12-DIMETHYLBENZ[A]ANTHRACENE, 57-97-6, 10 UMOL IN 0.4 ML ACETONE 20 MIN PRIOR TO EACH PROMOTER DOSE (STUDY DURATION: 47 WK), Route [Inhibitor]: DERMAL, Species: MOUSE, Strain/Sex: CF-1/FEMALE, Target Tissue: Type of Lesion: SKIN: PAPILLOMA, Dose [Carcinogen]: 100 NMOL IN 0.2 ML ACETONE ONCE) 94%, 90%, 4%, not calculated.
